Experimental data from patent US11535606B2, “Substituted quinoline-8-carbonitrile derivatives with androgen receptor degradation activity and uses thereof” (ACCUTAR BIOTECHNOLOGY INC., priority 2019, dated 2022).
Numbering of substitutions follows the chain as printed.

Legend:
Type in all cases: cell-based
Settings in all cases: 24 hours after administration, DC50 = concentration needed for 50% target protein degradation
[1] = biological target: T1, androgen receptor (AR) (Homo sapiens, UniProt P10275); assay: AR degradation activity in VCAP cells (Western blot)
T1 construct: endogenous in cells; host or cells: VCAP
T1 sequence (P10275 1-920): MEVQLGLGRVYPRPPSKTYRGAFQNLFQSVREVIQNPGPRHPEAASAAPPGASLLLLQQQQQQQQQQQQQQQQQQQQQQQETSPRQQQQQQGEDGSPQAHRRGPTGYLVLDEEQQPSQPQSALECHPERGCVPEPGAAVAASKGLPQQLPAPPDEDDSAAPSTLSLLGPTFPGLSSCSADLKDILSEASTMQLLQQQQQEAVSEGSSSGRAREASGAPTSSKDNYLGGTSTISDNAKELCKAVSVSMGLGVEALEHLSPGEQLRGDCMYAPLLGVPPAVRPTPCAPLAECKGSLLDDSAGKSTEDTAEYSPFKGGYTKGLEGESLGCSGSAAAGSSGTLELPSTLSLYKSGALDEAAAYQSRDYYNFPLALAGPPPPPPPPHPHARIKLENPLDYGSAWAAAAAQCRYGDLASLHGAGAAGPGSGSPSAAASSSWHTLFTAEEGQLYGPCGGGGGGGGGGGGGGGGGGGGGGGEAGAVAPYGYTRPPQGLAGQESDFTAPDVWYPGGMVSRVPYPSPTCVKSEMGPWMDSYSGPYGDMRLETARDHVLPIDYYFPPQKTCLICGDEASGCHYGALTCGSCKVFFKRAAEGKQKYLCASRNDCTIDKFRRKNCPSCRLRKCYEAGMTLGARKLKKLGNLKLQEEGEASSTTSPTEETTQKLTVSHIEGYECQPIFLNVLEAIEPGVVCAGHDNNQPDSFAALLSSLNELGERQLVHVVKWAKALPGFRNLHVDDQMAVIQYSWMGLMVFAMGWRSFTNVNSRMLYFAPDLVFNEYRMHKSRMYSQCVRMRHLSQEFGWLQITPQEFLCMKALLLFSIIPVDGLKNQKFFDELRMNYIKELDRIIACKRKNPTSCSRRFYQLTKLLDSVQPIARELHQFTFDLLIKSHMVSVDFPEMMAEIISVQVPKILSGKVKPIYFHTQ
Method: (§1) LNCAP, VCAP and 22Rv1 cells were plated in 24-well plates at 1.5×10E5 cells/well in the RPMI growth medium containing 10% FBS and 1% Penicillin Streptomycin, and then incubated at 37° C. overnight. The following day, the test compound was administered to the cells by using 1000× compound stock solution prepared in DMSO at various concentrations. After administration of the compound, the cells were then incubated at 37° C. for 24 hours. Upon completion, the cells were washed with PBS and protein was collected in Laemmli sample buffer (1×; VWR International). Proteins in cell lysate were separated by SDS-PAGE and transferred to Odyssey nitrocellulose membranes (Licor) with Iblot® dry blotting transfer system (ThermoFisher). Nonspecific binding was blocked by incubating membranes with Intercept Blocking Buffer (Licor) for 1 hour at room temperature with gentle shaking. The membranes were then incubated overnight at 4° C. with Primary antibodies rabbit anti-AR (1:1,000, Cell Signaling, 5153) and mouse anti-GAPDH (1:5,000, Santa Cruz Biotechnology, sc-47724) diluted in Intercept Blocking Buffer containing 0.1% Tween 20. After washing 3 times with TBS-T, the membranes were incubated with IRDye® 800CW goat anti-mouse IgG (1:20,000, Licor) or IRDye® 800CW goat anti-rabbit IgG (1:20,000, Licor) for 1 hour. After TBS-T washes, membranes were rinsed in TBS and scanned on Odyssey® CLx Imaging System (Licor). The bands were quantified using Image Studio™ Software (Licor).
(§2) Table 4 summarizes the androgen receptor (AR) degradative activity of exemplary compounds in LNCAP, VCAP and 22Rv1 cell lines 24 hours after administration. DC50: compound concentration needed for 50% target protein degradation.

[2] = biological target: T2, androgen receptor (AR) (Homo sapiens, UniProt P10275, T878A); assay: AR degradation activity in LNCAP cells (Western blot)
T2 construct: endogenous in cells; host or cells: LNCAP
T2 sequence (P10275 1-920 T878A): T1 sequence (P10275 1-920) with T878A
Method: as §1, §2

[3] = system: androgen receptor (AR); assay: AR degradation activity in 22Rv1 cells (Western blot)
Method: as §1, §2

DC50 [1] [µM] | DC50 [2] [µM] | DC50 [3] [µM] | Structure (SMILES)
< 0.01 | < 0.01 | < 0.01 | N#Cc1ccc(O[C@H]2CC[C@H](NC(=O)c3ccc(N4CCC(CN5CCN(c6ccc7c(c6)CN([C@H]6CCC(=O)NC6=O)C7=O)CC5)CC4)c(F)c3)CC2)c2cccnc12 [Compound 3-31, trans-N-(4-((8-cyanoquinolin-5-yl)oxy)cyclohexyl)-4-(4-((4-(2-((S)-2,6-dioxopiperidin-3-yl)-1-oxoisoindolin-5-yl)piperazin-1-yl)methyl)piperidin-1-yl)-3-fluorobenzamide]
< 0.01 | < 0.01 | < 0.01 | N#Cc1ccc(O[C@H]2CC[C@H](NC(=O)c3ccc(N4CCC(CN5CCN(c6ccc7c(c6)CN([C@H]6CCC(=O)NC6=O)C7=O)CC5)CC4)nc3)CC2)c2cccnc12 [Compound 3-29, trans-N-(4-((8-cyanoquinolin-5-yl)oxy)cyclohexyl)-6-(4-((4-(2-((S)-2,6-dioxopiperidin-3-yl)-1-oxoisoindolin-5-yl)piperazin-1-yl)methyl)piperidin-1-yl)nicotinamide]
< 0.01 | < 0.01 | < 0.01 | N#Cc1ccc(OC2CCC(NC(=O)c3ccc(N4CCC(CN5CCN(c6cc7c(cc6F)C(=O)N(C6CCC(=O)NC6=O)C7=O)CC5)CC4)nn3)CC2)c2cccnc12 (stereo not drawn) [Compound 3-36]
